Experiments:
[1] = molecular target: T1, CsPT1 (Cannabis sativa, UniProt A0A455ZIK6); assay: Prenyltransferase assay of recombinant CsPT1 with different aromatic acceptor substrates, geranyl diphosphate as prenyl donor; type: biochemical; conditions: for Product yield (%): yield of prenylated products by HPLC peak area, yield of cannabigerolic acid and 5-geranyl olivetolic acid set to 100%
Method: (§1) The prenyltransferase assay for CsPT1 comprised 100 mM Tris-HCl (pH 7.5), 0.2 mM olivetolic acid, 1 mM geranyl diphosphate and 5 mM MgCl2 in a final volume 100 μl. The reaction was initiated by addition of a 5 μl aliquot of microsomal preparation (64 μg protein), either from insect cells or yeast. After incubation for 1 h at 37° C., the reaction was terminated by addition of 10 μl 6 N HCl and extracted twice with 200 μl of ethyl acetate. The organic phase was evaporated to dryness and the residue dissolved in 50 μl of methanol. A 20 μl aliquot was analyzed by HPLC using a Waters 2695 system equipped with photodiode array detector on a Sunfire C18 reversed phase column 3.5 μm (4.6×150 mm) at a column temperature of 30° C. The mobile phase at 1 ml/min consisted of 50% water (containing 0.1% trifluoroacetic acid [TFA] [v/v]) and 50% acetonitrile over 10 min, 50% to 100% acetonitrile over 10 min, 100% acetonitrile to 50% acetonitrile over 1 min, 50% acetonitrile and 50% water over 4 min. The products were detected at 270 nm with photodiode array detection.
The activity of the recombinant CsPT1 was assayed to determine its use of different aromatic acceptor substrates using geranyl diphosphate as the prenyl donor substrate. […] In Table 3, Product yield is the yield of prenylated products as measured by HPLC peak area with the yield of cannabigerolic acid and 5-geranyl olivetolic acid set to 100%. Phlorisovalerophenone has not been detected in cannabis. It has been shown that cannabinoids with short side-chains exist in cannabis (e.g. tetrahydrocannabivarinic acid having a propyl side-chain instead of the pentyl side-chain of THC acid (Shoyama 1984). Given that CsPT1 accepts a variety of aromatic acceptor substrates, this enzyme likely is able to prenylate analogs of olivetolic acid that have differing side-chain length.

[2] = molecular target: T1, CsPT1; assay: Prenyltransferase assay of recombinant CsPT1 with different prenyl diphosphate donor substrates; type: biochemical; conditions: FIG. 6; n=3
Method: FIG. 6 depicts use of different prenyl diphosphate donor substrates by recombinant CsPT1, where DMAPP is dimethylally diphosphate, IPP is isopenetnyl diphosphate, GPP is geranyl diphosphate, NPP is neryl diphosphate, FPP is farnesyl diphosphate, and GGPP is geranylgeranyl diphosphate. Bar represents mean+/− standard deviation (n=3).
as §1, with “detection. […]” for “detection.”

Row | SMILES | Product yield (%) [1] | Geranylation of aromatic acceptor substrate by CsPT1 [1] | Use as prenyl donor substrate [2]
1 | O=C(O)Cc1cc(O)ccc1O [Homogentisic acid] | 0% | – | –
2 | Oc1cc(O)cc(O)c1 [Phloroglucinol] | 0% | – | –
3 | O=C1C[C@@H](c2ccc(O)cc2)Oc2cc(O)cc(O)c21 [Naringenin] | 31% | geranylated | –
4 | CCCCCC(=O)Cc1cc(O)cc(=O)o1 [Hexanoyl triacetic acid lactone] | 0% | – | –
5 | CCCCCc1cc(O)cc(O)c1C(=O)O [Olivetolic acid] | 100% | geranylated | –
6 | CC(C)=CCC/C(C)=C/COP(=O)(O)OP(=O)(O)O [geranyl diphosphate] | – | – | only used geranyl diphosphate (GPP) as a prenyl donor
7 | O=C(/C=C/c1ccc(O)cc1)c1c(O)cc(O)cc1O [Chalconaringenin] | 0% | – | –
8 | COc1cc(-c2cc(=O)c3c(O)cc(O)cc3o2)ccc1O [Chrysoeriol] | 0% | – | –
9 | CC(C)CC(=O)c1c(O)cc(O)cc1O [Phlorisovalerophenone] | 250% | geranylated | –
10 | O=c1cc(-c2ccc(O)c(O)c2)oc2cc(O)cc(O)c12 [Luteolin] | 0% | – | –
11 | Oc1ccc(C=Cc2cc(O)cc(O)c2)cc1 [Resveratrol] | 32% | geranylated | –
12 | CCCCCc1cc(O)cc(O)c1 [Olivetol] | 30% | geranylated | –

Source: patent publication US9765308B2, “Aromatic prenyltransferase from cannabis” (priority 2009, dated 2017)
